Nc1cc(Cl)ccc1[N+](=O)[O-]
solubility (mole fraction)
Conditions | 283.15 K | 288.15 K | 293.15 K | 298.15 K | 303.15 K | 308.15 K | 313.15 K | 318.15 K | 323.15 K
in 2-butanone | 0.141 | 0.149 | 0.164 | 0.173 | 0.187 | 0.203 | 0.218 | 0.234 | 0.252
in acetone | 0.126 | 0.141 | 0.152 | 0.165 | 0.183 | 0.2 | 0.219 | 0.242 | 0.262
in acetonitrile | 0.0303 | 0.036 | 0.0428 | 0.0519 | 0.0633 | 0.0751 | 0.0945 | 0.11 | 0.135
in ethanol | 0.0164 | 0.0184 | 0.0215 | 0.0243 | 0.0273 | 0.0317 | 0.0373 | 0.0441 | 0.0497
in ethyl acetate | 0.0983 | 0.107 | 0.117 | 0.133 | 0.144 | 0.158 | 0.174 | 0.193 | 0.24
in isobutanol | 0.0116 | 0.0129 | 0.0154 | 0.0185 | 0.0219 | 0.0259 | 0.0308 | 0.0361 | 0.0444
in isopropanol | 0.0146 | 0.017 | 0.0197 | 0.0232 | 0.0267 | 0.0321 | 0.0372 | 0.0451 | 0.0539
in methanol | 0.0104 | 0.0122 | 0.0142 | 0.0164 | 0.019 | 0.0235 | 0.027 | 0.0326 | 0.0374
in methyl acetate | 0.101 | 0.108 | 0.12 | 0.133 | 0.147 | 0.162 | 0.178 | 0.192 | 0.214
in n-butanol | 0.0182 | 0.0209 | 0.0246 | 0.0283 | 0.0311 | 0.0358 | 0.0426 | 0.0481 | 0.0553
in n-propanol | 0.0161 | 0.0184 | 0.0214 | 0.0246 | 0.0284 | 0.0315 | 0.0373 | 0.0452 | 0.0517
in water | 5.45e-06 | 9.54e-06 | 1.22e-05 | 1.77e-05 | 2.18e-05 | 2.73e-05 | 3.53e-05 | 4.25e-05 | 4.78e-05
